Molecular target: T1, BcGDHγα (Burkholderia cepacia, UniProt Q8GQE7)
T1 construct: gene gdhAlpha; alpha (539 aa, 60 kDa) with C-terminal His tag; gamma 168 aa with signal peptide, mature 121 aa (13 kDa); pTrc99A, E. coli BL21(DE3); no beta-subunit; heterodimer; purified by Ni and cation exchange; with Glucose dehydrogenase gamma subunit (hitchhiker protein, small subunit)
T1 sequence (Q8GQE7 1-539): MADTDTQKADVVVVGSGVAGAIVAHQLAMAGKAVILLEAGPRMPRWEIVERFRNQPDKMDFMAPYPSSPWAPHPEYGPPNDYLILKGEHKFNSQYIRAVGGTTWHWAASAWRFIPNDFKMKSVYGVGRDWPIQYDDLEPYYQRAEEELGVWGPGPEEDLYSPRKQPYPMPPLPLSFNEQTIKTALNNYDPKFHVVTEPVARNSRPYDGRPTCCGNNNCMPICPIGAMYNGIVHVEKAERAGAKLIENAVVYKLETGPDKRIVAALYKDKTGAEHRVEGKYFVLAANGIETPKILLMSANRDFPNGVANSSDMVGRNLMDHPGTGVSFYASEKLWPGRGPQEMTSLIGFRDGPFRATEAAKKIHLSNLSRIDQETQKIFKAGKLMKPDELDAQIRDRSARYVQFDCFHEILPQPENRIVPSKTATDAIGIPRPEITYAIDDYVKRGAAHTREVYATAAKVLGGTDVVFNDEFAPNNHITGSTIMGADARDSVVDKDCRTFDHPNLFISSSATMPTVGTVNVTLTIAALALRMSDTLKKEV
T1 sequence (A0A0H3KLY3 48-168 partner): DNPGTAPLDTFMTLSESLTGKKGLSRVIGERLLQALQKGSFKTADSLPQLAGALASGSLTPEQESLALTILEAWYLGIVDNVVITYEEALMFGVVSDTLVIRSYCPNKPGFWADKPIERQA
Assay: X-ray crystal structure, […] Å
Assay type: binding
Conditions: covalent; C8M of FAD to His105 of the alpha-subunit

Structure (SMILES): Cc1cc2nc3c(=O)[nH]c(=O)nc-3n(C[C@H](O)[C@H](O)[C@H](O)COP(=O)(O)OP(=O)(O)OC[C@H]3O[C@@H](n4cnc5c(N)ncnc54)[C@H](O)[C@@H]3O)c2cc1C [FAD]
- X-ray crystal structure, 2.6 Å: a covalent bond was deemed to form between FAD and His105 in the α-subunit

Reference: publication PMC6719666 (Acta Crystallographica. Section D, Structural Biology, 2019)
